# Results published in patent publication US6841376B2, “Bistable genetic toggle switch” (Cellicon Technologies, Inc., priority 1998, dated 2005).
# B1: E. coli LexA repressor protein: E. coli repressor protein that represses transcription at operator site Olex (protein, UniProt P0A7C2 1-202, looked up)
# LexA repressor: MKALTARQQEVFDLIRDHISQTGMPPTRAEIAQRLGFRSPNAAEEHLKALARKGVIEIVSGASRGIRLLQEEEEGLPLVGRVAAGEPLLAQQHIEGHYQVDPSLFKPNADFLLRVSGMSMKDIGIMDGDLLAVHKTQDVRNGQVVVARIDDEVTVKRLKKQGNKVELLPENSEFKPIVVDLRQQSFTIEGLAVGVIRNGDWL
# Legend:
# [1] = system: GFPmut3 expression; assay: Demonstration of bistability of toggle and control plasmids; format: cell-based, E. coli strain JM2.300; conditions: for GFP EXPRESSION (bistable or monostable behaviour): Toggles, Type IV plasmids; for bistability: Type IV toggle plasmids with RBS1 sequences of varying efficiency
# Source text: In order to test the limits of bistability of the toggle switch, the al parameter was varied experimentally by inserting RBS1 sequences of varying efficiency into pTAK (Class 1) and pIKE (Class 2) toggle switches of Type IV. Four pTAK series plasmids (Class 1) were constructed with RBS1 sequences D,F,G and H, and two pIKE series plasmids (Class 2) were constructed with RBS1 sequences A and C (Table 6).
# The existence of bistability is illustrated in FIG. 12. In this experiment, the toggle and control plasmids were grown in E. coli strain JM2.300 for 23.5 hours. At 6, 11, 18 and 23.5 hours, samples were taken and cells were pelleted, washed once in LB or PBS, and diluted 500-1000 fold into fresh medium with or without inducers as appropriate. […] Cells were washed and diluted into fresh medium with no IPTG and grown an additional 5 hours. […] Cells were diluted into fresh medium and induced at 42° C. (pTAK plasmids only—FIG. 12A) or grown in the presence of 500 ng/ml aTc (pIKE plasmids only—FIG. 12B). […] Cells were washed and diluted into fresh medium with no inducers or returned to standard temperature.
# In this experiment, a single culture of pTAK117 cells (initially in the low state) was divided into two groups and diluted. The first group was grown in medium with no inducers (squares) while the second group was grown in medium plus 2 mM IPTG (circles). After 6 hours, cells were pelleted, washed once in LB and diluted 1000 fold into fresh medium with no inducer. Both groups of cells were grown for an additional 22 hours while taking samples and diluting into fresh medium every 6-8.5 hours.
# [2] = system: GFPmut3 expression; assay: Switching time of toggle switch; format: cell-based, E. coli strain JM2.300
# Experimental: In this experiment, pTAK117 cells initially in the low state were diluted in fresh medium and induced with 2 mM IPTG. Separate cultures were grown for 35 minutes to 6 hours before pelleting, washing, and diluting the cells 500 fold in fresh medium with no inducer. Growth was continued until 10.25 hours after the start of the experiment and cells were assayed in the flow cytometer. Conversely, pTAK117 cells initially in the high state were diluted in fresh medium with no inducer. Separate cultures were grown at 41±1° C. for 35 minutes to 6 hours before diluting the cells 500 fold in fresh medium with no inducer. Growth was continued at standard temperature until 10.25 hours after the start of the experiment and cells were assayed in the flow cytometer.
# The cell population at four time points is illustrated. As evidenced by the appearance of a bimodal distribution at 4 hours (FIG. 15C), the pTAK117 plasmid began switching to the high state between 3 and 4 hours of IPTG induction. By five hours, the switching was nearly complete. By six hours, the switching was complete (FIGS. 15A and 15C). On the other hand, switching from the high state to the low state was completed in 35 minutes or less (FIG. 15B). In this experiment, the primary determinant of switching time appears to be the rate of destruction of the expressed transcribed repressor protein. […]
# [3] = system: GFPmut3 expression; assay: Toggle switch induction threshold (steady-state gene expression after 17 hour IPTG induction); format: cell-based, E. coli strain JM2.300; conditions: 17 hours in 13 different concentrations of IPTG
# Experimental: This was tested experimentally. In this experiment, pTAK117 (initially in the low state) and pTAK102 (as a control) were grown in 13 different concentrations of IPTG for 17 hours, diluting twice (at 6 and 12.5 hours) into fresh medium with the same IPTG concentration. The cells were grown for this length of time in order to ensure that they reached steady-state expression levels. […] Point 1 was taken from separate experiments measuring the high state of pTAK117 with no inducer. Points 3a and 3b are the high and low modes of a bimodally distributed cell population. The bimodality occurred apparently due to natural fluctuations in gene expression and the close proximity of the toggle switch to its bifurcation point. Induction of the pTAK102 control has the familiar sigmoidal shape (triangles). […] This discontinuity is referred to as a saddle-node bifurcation.
# [4] = system: GFP expression; assay: Flow-cytometer assay of gene expression and promoter strength (GFP expression by plasmids); format: cell-based, E. coli strain JM2.300; conditions: repressor expressed from Ptrc-2-E; 14,300/2.5
# Experimental: The host cell for all promoter assays and toggle switch experiments was E. coli strain JM2.300 [λ-, lacI22, rpsLl35 (StrR), thi-1] (CGSC strain 5002). JM2.300, which contains few mutations and is a fast growing strain that can tolerate enormous overexpression of plasmid-bound genes. Because JM2.300 contains no λ repressor and carries a non-functional Lac repressor (lacI22), it is considered to be a suitable host for the toggle switch.
# All cells were grown in LB medium (Difco) with 100 μg/ml ampicillin plus inducers as indicated in the text. All Type I and pIKE series plasmids were grown at 37±1° C., unless otherwise indicated. All pTAK series plasmids were grown at 32±1° C. except during thermal induction. […]
# The following expression data was collected using a Becton-Dickinson FACSCalibur flow cytometer with a 488 nm argon excitation laser and a 515-545 nm emission filter. […] Cells were assayed at low flow rate and fluorescence was calibrated using InSpeck Green fluorescent beads (Molecular Probes). […] All flow data were converted to ASCII format using MFI (E. Martz, University of Massachusetts, Amherst, available at http://marlin.bio.umass.edu/mcbfacs/flowcat.html\##mfi) and analyzed with Matlab (Mathworks).
# The strengths, in calibrated fluorescence units, of the promoter/RBS pairs used to construct the toggle switches are listed in Table 6. […]
# [5] = target: OL1-OL3; conditions: λ to OL1-OL3; cited from earlier work
# [6] = system: hybrid promoter: E. coli LexA operator sequence spliced into the HSV tk promoter; conditions: mammalian cells that synthesized the repressor; cited from earlier work
molecule,measurement,setting,value
"pIKE105: Class 2 Type IV toggle plasmid (SEQ ID NO: 16), PLtetO-1, RBS1 A, lacI and tetR",GFP EXPRESSION (bistable or monostable behaviour),[1],Monostable
same,bistability,[1],did not exhibit bistability
same,state after removal of IPTG,"[1]; washed, diluted into fresh medium with no IPTG, additional 5 hours",returned to the low state
"pTAK130: Class 1 Type IV toggle switch plasmid (SEQ ID NO: 15), PLslcon, RBS1 G",GFP EXPRESSION (bistable or monostable behaviour),[1],Bistable
"pIKE107: Class 2 Type IV toggle switch plasmid (SEQ ID NO: 17), PLtetO-1, RBS1 C",GFP EXPRESSION (bistable or monostable behaviour),[1],Bistable
same,bistability,[1],exhibited bistability
"pTAK117: Class 1 Type IV toggle switch plasmid (SEQ ID NO: 12), PLslcon, RBS1 D, lacI and cIts",switching from low to high state complete,[2]; 2 mM IPTG induction,six
same,switching from the high state to the low state completed,[2]; thermal induction at 41±1° C.,≤ 35 min
same,shape of IPTG induction curve,[3],quasi-discontinuous jump to the high state
same,IPTG concentration at which toggle exhibits quasi-discontinuous jump to the high expression state,[3]; initially in the low state,40 µM
same,long-term stability of the two states,"[1]; 6 hours with or without 2 mM IPTG, then 22 hours with no inducer",remained in their initial high or low states for the entire 22 hour period
same,GFP EXPRESSION (bistable or monostable behaviour),[1],Bistable
"pTAK132: Class 1 Type IV toggle switch plasmid (SEQ ID NO: 14), PLslcon, RBS1 H",GFP EXPRESSION (bistable or monostable behaviour),[1],Bistable
λ repressor (cI): bacteriophage λ repressor protein that represses the PL promoter,repression of the PLSlcon-D promoter,[4],~6000 fold
same,Kd,[5],~1 nM
"pTAK131: Class 1 Type IV toggle switch plasmid (SEQ ID NO: 13), PLslcon, RBS1 F",GFP EXPRESSION (bistable or monostable behaviour),[1],Bistable
B1,reduction of expression from hybrid LexA operator / HSV tk promoter,[6],10 fold
